Laboratory results from patent publication US20100330685A1, “DIAMINORHODAMINE DERIVATIVE” (SEKISUI MEDICAL CO., LTD., priority 2000, published 2010).
Counter-ions that a name gives are not always drawn.

Experiments:
[1] = test system: Bovine aorta endothelial cells; assay: Imaging of nitric oxide in cells; type: cell-based
Experimental: Bovine aorta endothelial cells were cultured on an imaging dish. The culture broth was changed to DMEM medium (supplemented with 0.2% DMSO) containing DAR-4M AM (10 μM) prepared in Example 5, and incubated at 37° C. for 30 minutes to load DAR-4M AM on the cells. The cells were washed, and the culture broth was changed again to DMEM medium not containing DAR-4M AM. After incubation at 37° C. for 1 hour, imaging was performed. The cells were examined with a fluorescence microscope equipped with an excitation filter (520 to 550 nm), a dichromic mirror (565 nm), and a barrier filter (580 nm, long pass). The measurement was performed in a warm box kept at 37° C. Imaging interval was set to be 10 seconds, and images captured by a cooled charge-coupled device camera were recorded and analyzed by an image analyzer. The results in the figure are shown with averaged change of relative fluorescence intensity of arbitrary seven cells based on the fluorescence intensity at the time of the start of the measurement. The fluorescence intensity was increased by stimulation with bradykinin (FIG. 3(A)), but the fluorescence intensity was not increased in the presence of a nitric oxide synthetase inhibitor (1 mM L-NAME) (FIG. 3(B)).

SMILES	uptake into the cells ([1]; 10 μM in DMEM medium, 37° C., 30 minutes)	fluorescence intensity in the presence of a nitric oxide synthetase inhibitor ([1]; 1 mM L-NAME, cells loaded with 10 μM)	fluorescence intensity on stimulation with bradykinin ([1]; cells loaded with 10 μM, 37° C., 30 minutes, average of seven cells)	melting point [°C]	reaction with nitric oxide in the cells ([1]; DAR-4M produced in the cells from DAR-4M AM)
CNc1ccc(-c2c3ccc(N(C)C)cc3[o+]c3cc(N(C)C)ccc23)c(C(=O)OCOC(C)=O)c1N.[I-] [DAR-4M AM, 3,6-bis(dimethylamino)-9-[2-acetoxymethoxycarbonyl-3-amino-4-(N-methylamino)phenyl]xanthylium iodide]	taken into the cells	not increased	increased	177 to 178	
CCN(CC)c1ccc2c(-c3ccc(NC)c(N)c3C(=O)OCOC(C)=O)c3ccc(N(CC)CC)cc3[o+]c2c1.[I-] [DAR-M AM, 3,6-bis(diethylamino)-9-[2-acetoxymethoxycarbonyl-3-amino-4-(N-methylamino)phenyl]xanthylium iodide]				147 to 150	
CNc1ccc(-c2c3ccc(N(C)C)cc3[o+]c3cc(N(C)C)ccc23)c(C(=O)[O-])c1N [DAR-4M, 3,6-bis(dimethylamino)-9-[3-amino-4-(N-methylamino)-2-carboxyphenyl]xanthylium intramolecular salt]					specifically reacted with nitric oxide
